In patent US8927547B2, “Pyrimidine derivatives” (Noviga Research AB, priority 2010, dated 2015):

What was measured:
Format in all cases: cell-based
[1] = tested on: A2780; test: FMCA, A2780 ovarian cancer; conditions: Homo sapiens, read-out: EC50 (μM) in various cancer cell lines: A2780
Source text: (§1) The Fluorometric Microculture Cytotoxicity Assay, FMCA, is a three day non-clonogenic microplate-based cell viability assay used for measurement of the cytotoxic and/or cytostatic effect of compounds in vitro (Lindhagen, E., et al. Nat Protoc, 2008. 3(8): p. 1364-9). FMCA (Larsson, R. and P. Nygren, Anticancer Res, 1989. 9(4): p. 1111-9) represents a valuable method to measure cytotoxicity in a number of cell types, both cell lines and primary cells from patients (Larsson, R., et al., Int J Cancer, 1992. 50(2): p. 177-85; Fridborg, H., et al., Eur J Cancer, 1999. 35(3): p. 424-32; Dhar, S., et al., Br J Cancer, 1996. 74(6): p. 888-96).
(§2) FMCA is based on the principle that fluorescein diacetate (FDA) is converted to the fluorescent probe fluorescein by esterases in the plasma membranes of living cells. For experiments, 96 or 384-well microplates are prepared with compounds and stored at −70° C. until use. Cells are then seeded into the drug-prepared plates and placed in an incubator for 72 h. On the last day of incubation, the plates are washed and a buffer containing FDA is added and incubated with the cells for 45 minutes. Finally the fluorescence per well is measured in a fluorometer and a Survival Index % (SI) for each compound-treated well is calculated with the equation: Compound-treated cells minus blank divided by control cells minus blank. A high SI-value indicates a large percentage of living cells and vice versa.
(§3) Compounds of the invention as well as kinase inhibitors sorafenib, sunitinib, dasatinib, and pazopanib (reference compounds) were diluted with PBS to a concentration which was ten-times higher than the desired starting concentration. Then, a Biomek 2000 liquid handling system was employed to serially dilute the compounds in a deep-well 384-well plate. From this plate, assay plates containing 5 μl compound per well were prepared with the Biomek 2000. Certain compounds precipitated when diluted with PBS, and these compounds were therefore prepared in a 96-well plate manually as described above using culture medium RPMI 1640 instead of PBS.
(§4) The compounds were also tested at five concentrations, with five times serial dilution on the following cell types: CCRF-CEM, hTERT-RPE1 (normal retinal epithelial cells), hRPTEpiC (normal renal cells) and PBMC (peripheral blood mononuclear cells). Each experiment was performed three times, except for PBMC and hRPTEpiC, which were performed twice. SI-values were calculated, graphs were plotted using GraphPadPrism 5.0 (GraphPad Software Inc. La Jolla, Calif.) and EC50-values for each cell type and compound were determined from the curves.
(§5) The compounds of the invention were also tested on further cancer cell lines related to colon cancer (HCT116; see e.g Brattain M G, et al. Cancer Res. 1981, 41, 1751-1756), breast cancer (MCF7; see e.g. Soule H D, et al. J. Natl. Cancer Inst. 1973, 51, 1409-1416), teniposide-resistant leukaemia (CEM/VM1; see e.g. Danks M K et al. Cancer Res. 1987, 47, 1297-1301), lung cancer (H69; see e.g. Gazdar A F, et al. Cancer Res. 1980, 40, 3502-3507), doxorubicin-resistant lung cancer (H69AR; see e.g. Mirski S E, et al. Cancer Res. 1987, 47, 2594-2598), myeloma (RPMI 8226; see e.g. Matsuoka Y, et al. Proc. Soc. Exp. Biol. Med. 1967, 125, 1246-1250), doxorubicin-resistant myeloma (8226/Dox40; see e.g. Dalton W S et al. Blood 1989, 15,747-752), lymphoma (U-937, see e.g. Sundstrom C, et al. Int. J. Cancer 1976, 17, 565-577), vincristin-resistant lymphoma (U-937-vcr; see e.g. Botling J, et al. Int J Cancer 1994, 15; 58 (2), 269-274), ovarian cancer (A2780; see e.g. Hamilton T C, et al. Semin Oncol. 1984, 11, 285-298), doxorubicin-resistant ovarian cancer (A2780/Adr), cisplatin-resistant ovarian cancer (A2780/Cis; see e.g. Behrens B C, et al. Cancer Res. 1987, 47, 414-418), renal cancer (ACHN; see e.g. Borden E C, et al. Cancer Res. 1982, 42(12), 4948-4953), pancreatic cancer (PANC-1, BxPC-3, and MIA PaCa-2; see e.g. Lieber M, et al. Int. […]

[2] = tested on: 8226/Dox40; test: FMCA, 8226/Dox40 doxorubicin-resistant myeloma; conditions: read-out: EC50 (μM) in various cancer cell lines: 8226/Dox40
Source text: as §1, §2, §3, §4, §5

[3] = tested on: H69; test: FMCA, H69 lung cancer; conditions: Homo sapiens, NCI-H69, read-out: EC50 (μM) in various cancer cell lines: H69
Source text: as §1, §2, §3, §4, §5

[4] = tested on: ACHN; test: FMCA, ACHN renal cancer; conditions: Homo sapiens, read-out: EC50 (μM) in various cancer cell lines: ACHN
Source text: as §1, §2, §3, §4, §5

[5] = tested on: BxPC-3; test: FMCA, BxPC-3 pancreatic cancer; conditions: Homo sapiens, read-out: EC50 (μM) in various cancer cell lines: BxPC-3
Source text: as §1
as §2, with “versa. […]” for “versa.”
as §4, with “Each experiment was performed three times, except for PBMC and hRPTEpiC, which were performed twice.” left out, “curves. […]” for “curves.”

[6] = tested on: U-937; test: FMCA, U-937 lymphoma; conditions: Homo sapiens, read-out: EC50 (μM) in various cancer cell lines: U-937
Source text: as §1, §2, §3, §4, §5

[7] = tested on: CCRF-CEM cancer cells - leukaemia; test: Fluorometric Microculture Cytotoxicity Assay (FMCA), CCRF-CEM; conditions: Homo sapiens, 72 h incubation
Source text: as §1, §2
In subsequent experiments, compounds were tested, along with kinase inhibitors (dasatinib, pazopanib, sorafenib, and sunitinib) as described above. Initially, the acute lymphoblastic leukaemia cell line CCRF-CEM (see e.g. Foley G E, et al. Cancer 1965, 18, 522-529) was used throughout. In the assay plates, medium was added to six empty wells (blank wells) and wells were filled with PBS and cell suspension and served as control wells. SI-values were then calculated for each compound-treated well as described above. All experiments were conducted twice and a new batch of plates was prepared for each experiment.
For dose-response experiments, 384-well plates were prepared as follows:
as §3, §4

[8] = tested on: U-937-vcr; test: FMCA, U-937-vcr vincristin-resistant lymphoma; conditions: read-out: EC50 (μM) in various cancer cell lines: U-937-ver
Source text: as §1, §2, §3, §4, §5

[9] = tested on: CEM/VM1; test: FMCA, CEM/VM1 teniposide-resistant leukaemia; conditions: Homo sapiens, read-out: EC50 (μM) in various cancer cell lines: CEM/VM1
Source text: as §1, §2, §3, §4, §5

[10] = tested on: RPMI 8226; test: FMCA, RPMI 8226 myeloma; conditions: Homo sapiens, read-out: EC50 (μM) in various cancer cell lines: RPMI 8226
Source text: as §1, §2, §3, §4, §5

[11] = tested on: A2780/Adr; test: FMCA, A2780/Adr doxorubicin-resistant ovarian cancer; conditions: read-out: EC50 (μM) in various cancer cell lines: A2780/Adr
Source text: as §1, §2, §3, §4
(§6) The compounds of the invention were also tested on further cancer cell lines related to colon cancer (HCT116; see e.g Brattain M G, et al. Cancer Res. 1981, 41, 1751-1756), breast cancer (MCF7; see e.g. Soule H D, et al. J. Natl. Cancer Inst. 1973, 51, 1409-1416), teniposide-resistant leukaemia (CEM/VM1; see e.g. Danks M K et al. Cancer Res. 1987, 47, 1297-1301), lung cancer (H69; see e.g. Gazdar A F, et al. Cancer Res. 1980, 40, 3502-3507), doxorubicin-resistant lung cancer (H69AR; see e.g. Mirski S E, et al. Cancer Res. 1987, 47, 2594-2598), myeloma (RPMI 8226; see e.g. Matsuoka Y, et al. Proc. Soc. Exp. Biol. Med. 1967, 125, 1246-1250), doxorubicin-resistant myeloma (8226/Dox40; see e.g. Dalton W S et al. Blood 1989, 15,747-752), lymphoma (U-937, see e.g. Sundstrom C, et al. Int. […]

[12] = tested on: MIA PaCa-2; test: FMCA, MIA PaCa-2 pancreatic cancer; conditions: Homo sapiens, read-out: EC50 (μM) in various cancer cell lines: MIA PaCa-2
Source text: as §1
as §2, with “versa. […]” for “versa.”
as §4, with “Each experiment was performed three times, except for PBMC and hRPTEpiC, which were performed twice.” left out, “curves. […]” for “curves.”

[13] = tested on: MCF7; test: FMCA, MCF7 breast cancer; conditions: Homo sapiens, read-out: EC50 (μM) in various cancer cell lines: MCF7
Source text: as §1, §2, §3, §4, §5

[14] = tested on: A2780/Cis; test: FMCA, A2780/Cis cisplatin-resistant ovarian cancer; conditions: A2780cis, read-out: EC50 (μM) in various cancer cell lines: A2780/Cis
Source text: as §1, §2, §3, §4, §6

[15] = tested on: PANC-1; test: FMCA, PANC-1 pancreatic cancer; conditions: Homo sapiens, read-out: EC50 (μM) in various cancer cell lines: PANC-1
Source text: as §1
as §2, with “versa. […]” for “versa.”
as §4, with “Each experiment was performed three times, except for PBMC and hRPTEpiC, which were performed twice.” left out, “curves. […]” for “curves.”

[16] = tested on: HCT116; test: FMCA, HCT116 colon cancer; conditions: Homo sapiens, HCT-116, read-out: EC50 (μM) in various cancer cell lines: HCT116
Source text: as §1, §2, §3, §4, §5

[17] = tested on: H69AR; test: FMCA, H69AR doxorubicin-resistant lung cancer; conditions: Homo sapiens, read-out: EC50 (μM) in various cancer cell lines: H69 AR
Source text: as §1, §2, §3, §4, §5

EC50 [1] [µM] | EC50 [2] [µM] | EC50 [3] [µM] | EC50 [4] [µM] | EC50 [5] [µM] | EC50 [6] [µM] | EC50 [8] [µM] | EC50 [9] [µM] | EC50 [10] [µM] | EC50 [11] [µM] | EC50 [12] [µM] | EC50 [13] [µM] | EC50 [14] [µM] | EC50 [15] [µM] | EC50 [16] [µM] | EC50 [17] [µM] | Compound | EC50 [7] [µM]
1.59 | 46.3 | 30.7 | 25.2 | < 1 | 1.47 | 1.81 | 1.33 | 12.8 | 12.6 | < 1 | 28.5 | 1.99 | < 1 | 9.83 | – | c1cc(Nc2nccc(NCc3ccc4[nH]cnc4c3)n2)c2cc[nH]c2c1 [Example 19, N^4-(1H-benzo[d]imidazol-5-ylmethyl)-N^2-(1H-indol-4-yl)pyrimidine-2,4-diamine] | 1.02
0.47 | 1.81 | 7.84 | 1.9 | < 0.1 | 0.27 | 0.3 | 0.17 | 0.53 | 1.9 | < 0.1 | 3.88 | 0.61 | < 0.1 | 0.63 | 0.27 | COc1ccc2[nH]cc(CCNc3nccc(NCc4ccc5[nH]ccc5c4)n3)c2c1 [Example 12, N^4-(1H-indol-5-ylmethyl)-N^2-[2-(5-methoxy-1H-indol-3-yl)ethyl]pyrimidine-2,4-diamine] | 0.76
0.45 | 2.02 | 11.6 | 3.08 | < 0.1 | 0.29 | 0.34 | 0.23 | 0.81 | 1.71 | < 0.1 | 4.92 | 0.32 | < 0.1 | 6.2 | – | Cc1cc(NCc2ccc3[nH]ncc3c2)nc(Nc2cccc3[nH]ccc23)n1 [Example 37, N^4-(1H-indazol-5-ylmethyl)-N^2-(1H-indol-4-yl)-6-methylpyrimidine-2,4-diamine] | 0.42
